Measurements from US11542508B2, “Isolated polynucleotides and polypeptides and methods of using same for expressing an expression product of interest” (priority 2016, dated 2023).

Legend:
[1] = tested on: phi3T; assay: Sequencing-based assay for lysogeny; format: cell-based, B. subtilis 168; conditions: 60 minutes post infection, phi3T MOI=2, peptide 1 μM; 18% (±3.3%) without peptide
Procedure: An overnight culture of bacteria was diluted 1/100 until reaching O.D 600 nm=0.1. Medium was replaced as described above [LB supplemented with 0.1 mM MnCl2 and 5 mM MgCl2 with or without SAIRGA (SEQ ID NO: 269)], and incubated for 1 hour at room temperature. Bacteria were infected by phi3T at multiplicity of infection (MOI)=2. Cell pellets were collected at 5, 10, 20 and 60 minutes post infection in the presence or absence of SAIRGA (SEQ ID NO: 269) peptide at 1 μM final concentration in the medium. DNA was extracted using QIAGEN DNeasy blood and tissue kit (CAT #69504) and subjected to Illumina-based whole genome sequencing on NextSeq500. The relative abundance of lysogens in each sample was estimated using the number of reads mapped to the uninterrupted integration site versus reads mapped to the integration junction spanning the prophage DNA on one end and the bacterial DNA on the other end.

[2] = tested on: Bacillus subtilis BEST7003 containing Construct #2; assay: GFP reporter expression, Construct #2; format: cell-based; conditions: Construct #2, peptide 62.5 nM-1000 nM in LB
Procedure: Starter growths of wild type (WT) Bacillus subtilis BEST7003 strain and of Bacillus subtilis BEST7003 strains containing Construct #1 or Construct #2 were cultured in 3 ml Luria-Bertani (LB) broth until the growth curve indicated stationary phase. Following, the bacterial cells were diluted in a ratio of 1/100 in LB broth or LB broth supplemented with a SAIRGA (SEQ ID NO: 269) peptide at a concentration range of 62.5 nM-1000 nM. Optical density (O.D. at 600 nm) and GFP fluorescence levels (488 nm excitation/518 nm emission) were measured over time in a 96 wells plate using a TECAN Infinite 200 plate reader.

In the case of `CC[C@H](C)[C@H](NC(=O)[C@H](C)NC(=O)[C@@H](N)CO)C(=O)N[C@@H](CCCNC(=N)N)C(=O)NCC(=O)N[C@@H](C)C(=O)O` [SAIRGA, Ser-Ala-Ile-Arg-Gly-Ala], the bacteria lysogenized [1] was 48% (±7.9%) and the “GFP expression in presence of peptide” value [2] was “differential expression of GFP dependent on the concentration of the peptide”.
